The record followed here is US20140323478A1, “SERINE/THREONINE KINASE INHIBITORS” (Afraxis Holdings, Inc., priority 2013, published 2014).

pIC50: −log10 of the molar value. A value given as a limit tells only on which side of the number the result lay.

The assay deals with T1, human recombinant PAK1-KD protein (Homo sapiens, UniProt Q13153).
T1 construct: made in house; host or cells: Tini [sic] cells infected with recombinant baculovirus
T1 sequence (Q13153 270-521 limits assumed): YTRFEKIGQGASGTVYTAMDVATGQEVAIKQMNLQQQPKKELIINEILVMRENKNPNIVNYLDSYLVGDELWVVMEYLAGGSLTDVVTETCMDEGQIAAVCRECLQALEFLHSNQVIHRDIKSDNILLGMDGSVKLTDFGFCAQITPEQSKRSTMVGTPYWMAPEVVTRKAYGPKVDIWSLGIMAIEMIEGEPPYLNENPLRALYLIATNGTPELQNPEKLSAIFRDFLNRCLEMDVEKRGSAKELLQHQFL
The assay is described as follows: PAK1-KD (kinase domain) IC50 Zlyte assay. It counts as biochemical. The conditions noted are these: Z'-LYTE FRET peptide substrate (Ser/Thr19), 60-minute incubation at 22° C. The source says: Determination of the activity of PAK activity of a compound of formula I was accomplished using the PAK1 inhibition assay in Biological Example 1.
PAK1-KD (Kinase Domain) IC50 Zlyte Assay Protocol
Activity of human recombinant PAK1-KD protein may be assessed in vitro by assay of the phosphorylation of a FRET peptide substrate. Catalytically active human recombinant PAK1-KD protein is obtained by purification from Tini cells infected with a human PAK1-KD recombinant baculovirus expression vector.
The activity/inhibition of PAK1-KD was estimated by measuring the phosphorylation of a FRET peptide substrate (Ser/Thr19) labeled with Coumarin and Fluorescein using Z′-LYTE™ assay (Invitrogen). The peptide substrate is a consensus sequence (KKRNRRLSVA) based on various PAK substrates reported in the scientific literature. The 10 μL assay mixtures contained 50 mM HEPES (pH 7.5), 0.01% Brij-35, 10 mM MgCl2, 1 mM EGTA, 2 μM FRET peptide substrate, and 20 pM PAK1-KD. Incubations were carried out at 22° C. in black polypropylene 384-well plates (Corning Costar). […] Following the 60-minute incubation, the assay mixtures were quenched by the addition of 5 μL of Z′-LYTE™ development reagent, and 1 hour later the emissions of coumarin (445 nm) and fluorescein (520 nm) were determined after excitation at 400 nm using an Envision plate reader (Perkin Elmer). An emission ratio (445 nm/520 nm) was determined to quantify the degree of substrate phosphorylation.
One may read the pIC50 as −log10 of the IC50, conventionally taken in molar units. With `CCn1c(=O)c(-c2ccccc2S(C)(=O)=O)cc2cnc(NCCC3CCN(C)CC3)nc21` [Compound I-1, 8-Ethyl-2-((2-(1-methylpiperidin-4-yl)ethyl)amino)-6-(2-(methylsulfonyl)phenyl)pyrido[2,3-d]pyrimidin-7(8H)-one], the pIC50 is below 5.35.
For the molecule `CCN1CCC(CCNc2ncc3cc(-c4cccc(S(C)(=O)=O)c4)c(=O)n(CC)c3n2)CC1` [Compound I-2, 8-ethyl-2-[2-(1-ethyl-4-piperidyl)ethylamino]-6-(3-methylsulfonylphenyl)pyrido[2,3-d]pyrimidin-7-one], the negative logarithm of the IC50 (pIC50) was 5.77.
To `CCNc1ncc2cc(-c3cccc(S(C)(=O)=O)c3)c(=O)n(CC)c2n1` [Compound I-3, 8-Ethyl-2-(ethylamino)-6-(3-methylsulfonylphenyl)pyrido[2,3-d]pyrimidin-7-one] belongs below 5.35; to `CCn1c(=O)c(-c2cccc(S(C)(=O)=O)c2)cc2cnc(NCCC3CCN(C)CC3)nc21` [Compound I-4, 8-ethyl-2-[2-(1-methyl-4-piperidyl)ethylamino]-6-(3-methylsulfonylphenyl)pyrido[2,3-d]pyrimidin-7-one], 5.85.
For `CCN1CCC(CCNc2ncc3cc(-c4ccccc4S(C)(=O)=O)c(=O)n(CC)c3n2)CC1` [Compound I-5, 8-ethyl-2-[2-(1-ethyl-4-piperidyl)ethylamino]-6-(2-methylsulfonylphenyl)pyrido[2,3-d]pyrimidin-7-one], the pIC50 is below 5.35.
With `CCN1CCC(CCNc2ncc3cc(-c4ccc(S(C)(=O)=O)cc4)c(=O)n(CC)c3n2)CC1` [Compound I-6, 8-ethyl-2-[2-(1-ethyl-4-piperidyl)ethylamino]-6-(4-methylsulfonylphenyl)pyrido[2,3-d]pyrimidin-7-one], the negative-log IC50 (pIC50) is below 5.35.
For `CCn1c(=O)c(-c2ccc(S(C)(=O)=O)cc2)cc2cnc(NCCC3CCN(C)CC3)nc21` [Compound I-7, 8-ethyl-2-[2-(1-methyl-4-piperidyl)ethylamino]-6-(4-methylsulfonylphenyl)pyrido[2,3-d]pyrimidin-7-one] the value was below 5.35; for `CCn1c(=O)c(-c2ccc([S+](C)[O-])cc2)cc2cnc(NCCC3CCN(C)CC3)nc21` (centres unmarked) [Compound I-8, 8-ethyl-2-[2-(1-methyl-4-piperidyl)ethylamino]-6-(4-methylsulfinylphenyl)pyrido[2,3-d]pyrimidin-7-one], below 5.35.
`CCn1c(=O)c(-c2ccc(S(=O)(=O)C3CC3)cc2)cc2cnc(NCCC3CCN(C)CC3)nc21` [Compound I-9, 6-(4-cyclopropylsulfonylphenyl)-8-ethyl-2-[2-(1-methyl-4-piperidyl)ethylamino]pyrido[2,3-d]pyrimidin-7-one]: the negative-log IC50 (pIC50) was 5.52.
As for `CCn1c(=O)c(-c2ccc(S(C)(=O)=O)cc2)cc2cnc(N[C@H]3[C@@H]4CNC[C@@H]43)nc21` [Compound I-10, 2-[[(1R,5S)-3-azabicyclo[3.1.0]hexan-6-yl]amino]-8-ethyl-6-(4-methylsulfonylphenyl)pyrido[2,3-d]pyrimidin-7-one], the pIC50 is below 5.35.
For `CCn1c(=O)c(-c2ccc(S(C)(=O)=O)nc2)cc2cnc(NCCC3CCN(C)CC3)nc21` [Compound I-11, 8-ethyl-2-[2-(1-methyl-4-piperidyl)ethylamino]-6-(6-methylsulfonyl-3-pyridyl)pyrido[2,3-d]pyrimidin-7-one] the value was 5.46; for `CCn1c(=O)c(-c2ccc([S+]([O-])C3CC3)cc2)cc2cnc(NCCC3CCN(C)CC3)nc21` (centres unmarked) [Compound I-12, 6-(4-cyclopropylsulfinylphenyl)-8-ethyl-2-[2-(1-methyl-4-piperidyl)ethylamino]pyrido[2,3-d]pyrimidin-7-one], 6.06.
To `CCn1c(=O)c(-c2ccc(S(=O)(=O)C3CC3)cc2Cl)cc2cnc(NCCC3CCN(C)CC3)nc21` [Compound I-13, 6-(2-chloro-4-cyclopropylsulfonyl-phenyl)-8-ethyl-2-[2-(1-methyl-4-piperidyl)ethylamino]pyrido[2,3-d]pyrimidin-7-one] belongs 7.17; to `CCNc1ncc2cc(-c3ccc(S(C)(=O)=O)cc3Cl)c(=O)n(C[C@H]3CC[C@H](N)CC3)c2n1` [Compound I-14, 8-(((1R,4R)-4-aminocyclohexyl)methyl)-6-(2-chloro-4-(methylsulfonyl)phenyl)-2-(ethylamino)pyrido[2,3-d]pyrimidin-7(8H)-one], 6.76.
